# No end group written: not given here.
# Legend:
# tight junction = test: activity as tight junction regulators; conditions: for activity as tight junction regulators: fragment alone
# Text: See US 2016/0022760, which is hereby incorporated by reference in its entirety. […] It is believed that an aminopeptidase located within the brush borders of the lumen surface may create larazotide-derived fragments, including fragments missing N-terminal glycine residues.
# [1] = system: intestinal disease symptoms; conditions: clinical trials, cited from earlier work
Substance,activity as tight junction regulators (tight junction),activity as tight junction regulator (tight junction; fragments GVLVQPG and VLVQPG mixed with full length larazotide),"activity at reducing intestinal disease symptoms ([1]; higher doses (e.g., 1 mg and 2 mg doses))","benefit at reducing intestinal disease symptoms ([1]; lower doses (e.g., 0.5 mg dose))"
VLVQPG [larazotide-derived fragment missing N-terminal glycine residues],largely inactive,–,–,–
GVLVQPG [larazotide-derived fragment missing N-terminal glycine residue],largely inactive,–,–,–
GGVLVQPG [Larazotide],–,completely abolished,"attenuation of activity, or no activity at all",benefit

# Reference: patent publication US20210069286A1, “COMPOSITIONS AND METHODS FOR TREATING OR PREVENTING HYPERGLYCEMIA, INSULIN RESISTANCE, AND […] DAMAGE” (9 Meters Biopharma, Inc., priority 2018, published 2021)
